Experimental data from patent US20250101028A1, “HETEROCYCLIC COMPOUNDS, COMPOSITIONS THEREOF, AND METHODS OF TREATMENT THEREWITH” (BeiGene, Ltd., priority 2022, published 2025).

Molecular target: T1, GST-tagged GDP-loaded KRAS G12V (amino acids 1-169) (Homo sapiens, UniProt P01116, G12V)
T1 construct: GST-tagged GDP-loaded KRAS G12V (amino acids 1-169); made in house; host or cells: E. coli
Assay: KRAS G12V probe displacement assay (TR-FRET)
Format: binding
Conditions: displacement of biotinylated probe 2 from GDP-loaded KRAS G12V
Method: KRAS WT and KRAS G12V Probe Displacement Assay
This assay was used to identify compounds which bind to GDP-loaded KRAS protein and are able to displace a biotinylated probe occupying the KRAS binding site. GST-tagged GDP-loaded WT KRAS (amino acids 1-169) and GST-tagged GDP-loaded KRAS G12V (amino acids 1-169) were expressed in E. coli and purified in house. All protein and reaction solutions were prepared in assay buffer containing 50 mM HEPES pH7.5, 50 mM NaCl, 1 mM MgCl2, 1 mM TCEP, 0.01% BSA, and 0.008% Brij-35. Purified WT KRAS (3 nM final concentration) or KRAS G12V protein (2 nM final concentration) was incubated with a 3-fold serially diluted compound in the assay plate (384 well microplate, black, Corning). Plates are incubated at 24° C. for 1 hr. Following the incubation, biotinylated probe 1 (60 nM final assay concentration) for WT KRAS and biotinylated probe 2 (2.5 nM final assay concentration) for KRAS G12V was added to the assay plate, respectively. After 1 hr incubation at 24° C., Mab Anti-GST-Tb cryptate (Cisbio) and Streptavidin-XL665 (Cisbio) were added and further incubated at 24° C. for another 1 hr. The TR-FRET signals (ex337 nm, em665 nm/620 nm) were read on BMG PHERAstar FSX instrument. The inhibition percentage of KRAS protein binding with biotinylated probe in presence of increasing concentrations of compounds was calculated based on the ratio of fluorescence at 665 nm to that at 620 nm. The IC50 value of each compound was calculated from fitting the data to the four-parameter logistic model by Dotmatics.

T1 sequence (P01116 1-169 isoform P01116-2 G12V): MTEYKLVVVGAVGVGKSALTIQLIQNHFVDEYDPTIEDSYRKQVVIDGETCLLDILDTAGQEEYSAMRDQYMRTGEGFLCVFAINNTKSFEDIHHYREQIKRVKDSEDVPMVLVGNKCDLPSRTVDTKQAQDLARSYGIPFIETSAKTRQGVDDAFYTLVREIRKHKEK

Row | Compound | IC50 [nM]
1 | N#C[C@@H]1CCN(c2nc(OC[C@@]34CCCN3C[C@H](F)C4)nc3c(F)c(-c4ccc(F)c5sc(N)nc45)c(C(F)(F)F)cc23)C[C@H]1O (mixture of isomers) [Example 75, 1-(7-(2-amino-7-fluorobenzo[d]thiazol-4-yl)-8-fluoro-2-(((2R,7aS)-2-fluorotetrahydro-1H-pyrrolizin-7a(5H)-yl)methoxy)-6-(trifluoromethyl)quinazolin-4-yl)-trans-3-hydroxypiperidine-4-carbonitrile] | 3.8
2 | Cc1cc(N)nc(-c2c(Cl)cc3c(N4CC[C@@H](C#N)C[C@@H]4C)nc(OC[C@@]45CCCN4C[C@H](F)C5)nc3c2F)c1C(F)(F)F (mixture of isomers) [Example 104, 1-(7-(6-amino-4-methyl-3-(trifluoromethyl)pyridin-2-yl)-6-chloro-8-fluoro-2-(((2R,7aS)-2-fluorotetrahydro-1H-pyrrolizin-7a(5H)-yl)methoxy)quinazolin-4-yl)-trans-2-methylpiperidine-4-carbonitrile] | 7
3 | Nc1nc2c(-c3c(C(F)(F)F)cc4c(NC5CC5c5ccccc5)nc(OC[C@@]56CCCN5C[C@H](F)C6)nc4c3F)ccc(F)c2s1 (relative stereo) [Example 5, 7-fluoro-4-(8-fluoro-2-(((2R,7aS)-2-fluorotetrahydro-1H-pyrrolizin-7a(5H)-yl)methoxy)-4-(((trans)-2-phenylcyclopropyl)amino)-6-(trifluoromethyl)quinazolin-7-yl)benzo[d]thiazol-2-amine] | 45
4 | CC1CC(C#N)CCN1c1nc(OC[C@@]23CCCN2C[C@H](F)C3)nc2c(F)c(-c3ccc(F)c4sc(N)nc34)c(C(F)(F)F)cc12 (relative stereo) [Example 74, 1-(7-(2-amino-7-fluorobenzo[d]thiazol-4-yl)-8-fluoro-2-(((2R,7aS)-2-fluorotetrahydro-1H-pyrrolizin-7a(5H)-yl)methoxy)-6-(trifluoromethyl)quinazolin-4-yl)-trans-2-methylpiperidine-4-carbonitrile] | 1.9
5 | Nc1nc2c(-c3c(C(F)(F)F)cc4c(NC5CCC(F)C5)nc(OC[C@@]56CCCN5C[C@H](F)C6)nc4c3F)ccc(F)c2s1 (stereo in doubt) [Example 25, 7-fluoro-4-(8-fluoro-4-(((1S,3R)-3-fluorocyclopentyl)amino)-2-(((2R,7aS)-2-fluorotetrahydro-1H-pyrrolizin-7a(5H)-yl)methoxy)-6-(trifluoromethyl)quinazolin-7-yl) benzo[d]thiazol-2-amine] | 38
6 | Nc1nc2c(-c3c(C(F)(F)F)cc4c(N[C@H]5C[C@H]5F)nc(OC[C@@]56CCCN5C[C@H](F)C6)nc4c3F)ccc(F)c2s1 [Example 2, 7-fluoro-4-(8-fluoro-4-(((1S,2R)-2-fluorocyclopropyl)amino)-2-(((2R,7aS)-2-fluorotetrahydro-1H-pyrrolizin-7a(5H)-yl)methoxy)-6-(trifluoromethyl)quinazolin-7-yl)benzo[d]thiazol-2-amine] | 16
7 | CC1CC1Nc1nc(OC[C@@]23CCCN2C[C@H](F)C3)nc2c(F)c(-c3ccc(F)c4sc(N)nc34)c(C(F)(F)F)cc12 (stereo partly drawn) [Example 3, 7-fluoro-4-(8-fluoro-2-(((2R,7aS)-2-fluorotetrahydro-1H-pyrrolizin-7a(5H)-yl)methoxy)-4-((2-methylcyclopropyl)amino)-6-(trifluoromethyl)quinazolin-7-yl)benzo[d]thiazol-2-amine] | 6.2
8 | CCC1CC1Nc1nc(OC[C@@]23CCCN2C[C@H](F)C3)nc2c(F)c(-c3ccc(F)c4sc(N)nc34)c(C(F)(F)F)cc12 (stereo partly shown) [Example 4] | 29
9 | COC1CC1Nc1nc(OC[C@@]23CCCN2C[C@H](F)C3)nc2c(F)c(-c3ccc(F)c4sc(N)nc34)c(C(F)(F)F)cc12 (stereo partly drawn) [Example 6, 7-fluoro-4-(8-fluoro-2-(((2R,7aS)-2-fluorotetrahydro-1H-pyrrolizin-7a(5H)-yl)methoxy)-4-((2-methoxycyclopropyl)amino)-6-(trifluoromethyl)quinazolin-7-yl)benzo[d]thiazol-2-amine] | 54
10 | Nc1nc2c(-c3c(C(F)(F)F)cc4c(NC5C6CCCC65)nc(OC[C@@]56CCCN5C[C@H](F)C6)nc4c3F)ccc(F)c2s1 (stereo partly drawn) [Example 8, 4-(4-(bicyclo[3.1.0]hexan-6-ylamino)-8-fluoro-2-(((2R,7aS)-2-fluorotetrahydro-1H-pyrrolizin-7a(5H)-yl)methoxy)-6-(trifluoromethyl)quinazolin-7-yl)-7-fluorobenzo[d]thiazol-2-amine] | 43
11 | CC(=O)N1C[C@@H]2[C@H](C1)[C@H]2Nc1nc(OC[C@@]23CCCN2C[C@H](F)C3)nc2c(F)c(-c3ccc(F)c4sc(N)nc34)c(C(F)(F)F)cc12 [Example 9, 1-((1R,5S,6s)-6-((7-(2-amino-7-fluorobenzo[d]thiazol-4-yl)-8-fluoro-2-(((2R,7aS)-2-fluorotetrahydro-1H-pyrrolizin-7a(5H)-yl)methoxy)-6-(trifluoromethyl)quinazolin-4-yl)amino)-3-azabicyclo[3.1.0]hexan-3-yl)ethan-1-one] | 2.5
12 | Nc1nc2c(-c3c(C(F)(F)F)cc4c(NC5CCC5)nc(OC[C@@]56CCCN5C[C@H](F)C6)nc4c3F)ccc(F)c2s1 [Example 10, 4-(4-(cyclobutylamino)-8-fluoro-2-(((2R,7aS)-2-fluorotetrahydro-1H-pyrrolizin-7a(5H)-yl)methoxy)-6-(trifluoromethyl)quinazolin-7-yl)-7-fluorobenzo[d]thiazol-2-amine] | 19
13 | Nc1nc2c(-c3c(C(F)(F)F)cc4c(N[C@H]5C[C@@H](O)C5)nc(OC[C@@]56CCCN5C[C@H](F)C6)nc4c3F)ccc(F)c2s1 [Example 11, cis-3-((7-(2-amino-7-fluorobenzo[d]thiazol-4-yl)-8-fluoro-2-(((2R,7aS)-2-fluorotetrahydro-1H-pyrrolizin-7a(5H)-yl)methoxy)-6-(trifluoromethyl)quinazolin-4-yl)amino)cyclobutan-1-ol] | 4.4
14 | Nc1nc2c(-c3c(C(F)(F)F)cc4c(N[C@H]5C[C@H](O)C5)nc(OC[C@@]56CCCN5C[C@H](F)C6)nc4c3F)ccc(F)c2s1 [Example 12, (trans)-3-((7-(2-amino-7-fluorobenzo[d]thiazol-4-yl)-8-fluoro-2(((2R,7aS)-2-fluorotetrahydro-1H-pyrrolizin-7a(5H)-yl)methoxy)-6-(trifluoromethyl)quinazolin-4-yl)amino)cyclobutan-1-ol] | 3.7
15 | CO[C@H]1C[C@@H](Nc2nc(OC[C@@]34CCCN3C[C@H](F)C4)nc3c(F)c(-c4ccc(F)c5sc(N)nc45)c(C(F)(F)F)cc23)C1 [Example 13, 7-fluoro-4-(8-fluoro-2-(((2R,7aS)-2-fluorotetrahydro-1H-pyrrolizin-7a(5H)-yl)methoxy)-4-(((cis)-3-methoxycyclobutyl)amino)-6-(trifluoromethyl)quinazolin-7-yl)benzo[d]thiazol-2-amine] | 20
16 | CO[C@H]1C[C@H](Nc2nc(OC[C@@]34CCCN3C[C@H](F)C4)nc3c(F)c(-c4ccc(F)c5sc(N)nc45)c(C(F)(F)F)cc23)C1 [Example 14, 7-fluoro-4-(8-fluoro-2-(((2R,7aS)-2-fluorotetrahydro-1H-pyrrolizin-7a(5H)-yl)methoxy)-4-(((trans)-3-methoxycyclobutyl)amino)-6-(trifluoromethyl)quinazolin-7-yl)benzo[d]thiazol-2-amine] | 13
17 | Nc1nc2c(-c3c(C(F)(F)F)cc4c(N[C@H]5C[C@@H](F)C5)nc(OC[C@@]56CCCN5C[C@H](F)C6)nc4c3F)ccc(F)c2s1 [Example 15, 7-fluoro-4-(8-fluoro-4-(((cis)-3-fluorocyclobutyl)amino)-2-(((2R,7aS)-2-fluorotetrahydro-1H-pyrrolizin-7a(5H)-yl)methoxy)-6-(trifluoromethyl)quinazolin-7-yl)benzo[d]thiazol-2-amine] | 17
18 | Nc1nc2c(-c3c(C(F)(F)F)cc4c(N[C@H]5C[C@H](F)C5)nc(OC[C@@]56CCCN5C[C@H](F)C6)nc4c3F)ccc(F)c2s1 [Example 16, 7-fluoro-4-(8-fluoro-4-(((trans)-3-fluorocyclobutyl)amino)-2-(((2R,7aS)-2-fluorotetrahydro-1H-pyrrolizin-7a(5H)-yl)methoxy)-6-(trifluoromethyl)quinazolin-7-yl)benzo[d]thiazol-2-amine] | 14
19 | Nc1nc2c(-c3c(C(F)(F)F)cc4c(NC5CC(F)(F)C5)nc(OC[C@@]56CCCN5C[C@H](F)C6)nc4c3F)ccc(F)c2s1 [Example 17, 4-(4-((3,3-difluorocyclobutyl)amino)-8-fluoro-2-(((2R,7aS)-2-fluorotetrahydro-1H-pyrrolizin-7a(5H)-yl)methoxy)-6-(trifluoromethyl)quinazolin-7-yl)-7-fluorobenzo[d]thiazol-2-amine] | 43
